# Assay results reported in ChEMBL document CHEMBL1649445, “Genital tract, cord blood, and amniotic fluid exposures of seven antiretroviral drugs during and after pregnancy in human immunodeficiency virus type 1-infected women” (Antimicrob Agents Chemother, 2009).
# Legend:
# Assay type in all cases: ADME, organism-based
# [1] = Drug level in HIV-infected pregnant woman amniotic fluid at 200 mg, po BID by HPLC/UV analysis; settings: human, in vivo
# [2] = Drug level in HIV-infected pregnant woman cord blood plasma at 200 mg, po BID by HPLC/UV analysis; settings: human, in vivo
# [3] = Drug level in HIV-infected pregnant woman maternal blood plasma at 200 mg, po BID by HPLC/UV analysis; settings: human, in vivo
# [4] = Ratio of drug level in HIV-infected pregnant woman cord blood plasma to maternal blood plasma at 200 mg, po BID by HPLC/UV analysis; settings: female, human
# [5] = Ratio of drug level in HIV-infected pregnant woman amniotic fluid to maternal blood plasma at 200 mg, po BID by HPLC/UV analysis; settings: female, human
# [6] = Drug level in HIV-infected pregnant woman maternal blood plasma at 150 mg, po BID by LC/MS/MS analysis; settings: human, in vivo
# [7] = Drug level in HIV-infected pregnant woman amniotic fluid at 150 mg, po BID by LC/MS/MS analysis; settings: human, in vivo
# [8] = Drug level in HIV-infected pregnant woman cord blood plasma at 150 mg, po BID by LC/MS/MS analysis; settings: human, in vivo
# [9] = Ratio of drug level in HIV-infected pregnant woman cord blood plasma to maternal blood plasma at 1250 mg, po BID by HPLC/UV analysis; settings: female, human
# [10] = Drug level in HIV-infected pregnant woman amniotic fluid at 1250 mg, po BID by HPLC/UV analysis; settings: human, in vivo
# [11] = Drug level in HIV-infected pregnant woman cord blood plasma at 1250 mg, po BID by HPLC/UV analysis; settings: human, in vivo
# [12] = Drug level in HIV-infected pregnant woman maternal blood plasma at 1250 mg, po BID by HPLC/UV analysis; settings: human, in vivo
# [13] = Ratio of drug level in HIV-infected pregnant woman amniotic fluid to maternal blood plasma at 1250 mg, po BID by HPLC/UV analysis; settings: female, human
# [14] = Ratio of drug level in HIV-infected pregnant woman cord blood plasma to maternal blood plasma at 100 mg, po BID by HPLC/UV analysis; settings: female, human
# [15] = Drug level in HIV-infected pregnant woman amniotic fluid at 100 mg, po BID by HPLC/UV analysis; settings: human, in vivo
# [16] = Ratio of drug level in HIV-infected pregnant woman amniotic fluid to maternal blood plasma at 100 mg, po BID by HPLC/UV analysis; settings: female, human
# [17] = Drug level in HIV-infected pregnant woman maternal blood plasma at 100 mg, po BID by HPLC/UV analysis; settings: human, in vivo
# [18] = Drug level in HIV-infected pregnant woman cord blood plasma at 100 mg, po BID by HPLC/UV analysis; settings: human, in vivo
# [19] = Drug level in HIV-infected pregnant woman amniotic fluid at 400 mg, po BID by HPLC/UV analysis; settings: human, in vivo
# [20] = Drug level in HIV-infected pregnant woman cord blood plasma at 400 mg, po BID by HPLC/UV analysis; settings: human, in vivo
# [21] = Drug level in HIV-infected pregnant woman maternal blood plasma at 400 mg, po BID by HPLC/UV analysis; settings: human, in vivo
# [22] = Drug level in HIV-infected pregnant woman amniotic fluid at 300 mg, po QD by LC/MS/MS analysis; settings: human, in vivo
# [23] = Drug level in HIV-infected pregnant woman maternal blood plasma at 300 mg, po QD by LC/MS/MS analysis; settings: human, in vivo
# [24] = Ratio of drug level in HIV-infected pregnant woman cord blood plasma to maternal blood plasma at 300 mg, po QD by LC/MS/MS analysis; settings: female, human
# [25] = Drug level in HIV-infected pregnant woman cord blood plasma at 300 mg, po QD by LC/MS/MS analysis; settings: human, in vivo
# [26] = Ratio of drug level in HIV-infected pregnant woman amniotic fluid to maternal blood plasma at 300 mg, po QD by LC/MS/MS analysis; settings: female, human
# [27] = Drug level in HIV-infected pregnant woman maternal blood plasma at 300 mg, po BID by LC/MS/MS analysis; settings: human, in vivo
# [28] = Drug level in HIV-infected pregnant woman cord blood plasma at 300 mg, po BID by LC/MS/MS analysis; settings: human, in vivo
# [29] = Drug level in HIV-infected pregnant woman amniotic fluid at 300 mg, po BID by LC/MS/MS analysis; settings: human, in vivo
smiles,measurement,setting,value
Cc1ccnc2c1NC(=O)c1cccnc1N2C1CC1 [NEVIRAPINE],Drug uptake,[1],1385 ng/mL
same,Drug uptake,[2],1538 ng/mL
same,Drug uptake,[3],2595 ng/mL
same,Kp,[4],0.59
same,Kp,[5],0.53
Nc1ccn([C@@H]2CS[C@H](CO)O2)c(=O)n1 [LAMIVUDINE],Drug uptake,[6],271 ng/mL
same,Drug uptake,[7],931 ng/mL
same,Drug uptake,[8],216 ng/mL
Cc1c(O)cccc1C(=O)N[C@@H](CSc1ccccc1)[C@H](O)CN1C[C@H]2CCCC[C@H]2C[C@H]1C(=O)NC(C)(C)C,Kp,[9],0.49
same,Drug uptake,[10],12 ng/mL
same,Drug uptake,[11],25 ng/mL
same,Drug uptake,[12],65 ng/mL
same,Kp,[13],1
CC(C)c1nc(CN(C)C(=O)N[C@H](C(=O)N[C@@H](Cc2ccccc2)C[C@H](O)[C@H](Cc2ccccc2)NC(=O)OCc2cncs2)C(C)C)cs1 [RITONAVIR],Kp,[14],0.55
same,Drug uptake,[15],12 ng/mL
same,Kp,[16],0.02
same,Drug uptake,[17],256 ng/mL
same,Drug uptake,[18],20 ng/mL
Cc1cccc(C)c1OCC(=O)N[C@@H](Cc1ccccc1)[C@@H](O)C[C@H](Cc1ccccc1)NC(=O)[C@H](C(C)C)N1CCCNC1=O [LOPINAVIR],Drug uptake,[19],60 ng/mL
same,Drug uptake,[20],80 ng/mL
same,Drug uptake,[21],3451 ng/mL
C[C@H](Cn1cnc2c(N)ncnc21)OCP(=O)(O)O [TENOFOVIR ANHYDROUS],Drug uptake,[22],791 ng/mL
same,Drug uptake,[23],5 ng/mL
same,Kp,[24],6
same,Drug uptake,[25],30 ng/mL
same,Kp,[26],158
Cc1cn([C@H]2C[C@H](N=[N+]=[N-])[C@@H](CO)O2)c(=O)[nH]c1=O [ZIDOVUDINE],Drug uptake,[27],557 ng/mL
same,Drug uptake,[28],605 ng/mL
same,Drug uptake,[29],2249 ng/mL
